The compounds below were run against Protein farnesyltransferase subunit beta/geranylgeranyltransferase type-1 subunit alpha (Mus musculus, UniProt Q61239+Q8K2I1) (assay: Inhibition of H-Ras transformed NIH-3T3-cell proliferation).

Row | SMILES | EC50
1 | CCOc1cccc(-c2cc(C#N)ccc2COCc2cncn2Cc2ccc(Cl)cc2)c1 [6-(((1-(4-chlorobenzyl)-1H-imidazol-5-yl)methoxy)methyl)-3'-ethoxybiphenyl-3-carbonitrile] | 34 nM
2 | N#Cc1ccc(COCc2cncn2Cc2ccc(C#N)cc2-c2cccc3ccccc23)cc1 [4-[5-(4-cyano-benzyloxymethyl)-imidazol-1-ylmethyl]-3-naphthalen-1-yl-benzonitrile] | 461 nM
3 | CCOc1cccc(-c2cc(C#N)ccc2COCc2cncn2Cc2ccc(C#N)nc2)c1 [5-((5-(((5-cyano-3'-ethoxybiphenyl-2-yl)methoxy)methyl)-1H-imidazol-1-yl)methyl)picolinonitrile] | 17 nM
4 | N#Cc1ccc(Cn2cncc2COc2ccc(C#N)c(-c3cccc4ccccc34)c2)cc1 [4-((1-(4-cyanobenzyl)-1H-imidazol-5-yl)methoxy)-2-(naphthalen-1-yl)benzonitrile] | 1.2 nM
5 | N#Cc1ccc(Cn2cncc2COCc2ccc(C#N)cc2-c2ccc3c(c2)OCO3)nc1 [6-((5-((2-(benzo[d][1,3]dioxol-5-yl)-4-cyanobenzyloxy)methyl)-1H-imidazol-1-yl)methyl)nicotinonitrile] | 29 nM
6 | N#Cc1ccc(Cn2cncc2COCc2ccc(C#N)cc2-c2ccc(C(F)(F)F)cc2)cc1 [6-(((1-(4-cyanobenzyl)-1H-imidazol-5-yl)methoxy)methyl)-4'-(trifluoromethyl)biphenyl-3-carbonitrile] | 1.6 nM
7 | N#Cc1ccc(OCc2cncn2Cc2ccc(C#N)c(-c3cccc4ccccc34)c2)nc1 [6-[3-(4-Cyano-3-naphthalen-1-yl-benzyl)-3H-imidazol-4-ylmethoxy]-nicotinonitrile] | 60 nM
8 | N#Cc1ccc(COCc2cncn2Cc2ccc(C#N)nc2)c(-c2ccc3c(c2)OCO3)c1 [5-[5-(2-Benzo[1,3]dioxol-5-yl-4-cyano-benzyloxymethyl)-imidazol-1-ylmethyl]-pyridine-2-carbonitrile] | 16 nM
9 | N#Cc1ccc(Cn2cncc2COCc2ccc(C#N)cc2-c2cccc(Cl)c2)nc1 [6-[5-(3''-Chloro-5-cyano-biphenyl-2-ylmethoxymethyl)-imidazol-1-ylmethyl]-nicotinonitrile] | 155 nM
10 | CC(=O)c1ccc(-c2cc(C#N)ccc2COCc2cncn2Cc2ccc(C#N)cc2)cc1 [4'-acetyl-6-(((1-(4-cyanobenzyl)-1H-imidazol-5-yl)methoxy)methyl)biphenyl-3-carbonitrile] | 77 nM
